{
  "source": "patent US8604212B2",
  "about": "“Anti-shock agent comprising diaminotrifluoromethylpyridine derivative” (Ishihara Sangyo Kaisha, Ltd., priority 2009, dated 2013)",
  "tested_on": "mouse models with septic shock, the onset of which was peritonitis triggered by the cecal puncture",
  "experiment": "Therapeutic effect on mouse models with septic shock, the onset of which was peritonitis triggered by the cecal puncture (viability test)",
  "format": "in vivo",
  "conditions": "for surviving rate: female BALB/c mice",
  "description": "Therapeutic effects of N-(2-ethylsulfonylamino-5-trifluoromethyl-3-pyridyl)cylohexanecarboxamide sodium salt monohydrate (hereinafter referred to as compound 1) on mouse models with septic shock, the onset of which was peritonitis triggered by the cecal puncture, was examined.\nThe compound 1 was used as a drug formulation. The formulation composition (content per one vial) was as follows.\nAge: 7 weeks old when purchased and 8 weeks old when tested\nThe mice were pre-bred for about a week after purchase and then subjected to a test at about 8 weeks old. Breeding in the entire breeding period was carried out in an isolator placed in a large animal room. Ten mice in each group were accommodated in a polycarbonate cage throughout the test period, and they were freely fed on commercially available complete feed pellet (MF, manufactured by O. B. S.) and tap water subjected to activated carbon filtration (with use of a feed water bottle) throughout the breeding period. From the mice, mice which were healthily grown during the pre-breeding period were selected. Mice were randomly selected from the above selected mice and delivered to the respective groups one by one in the order of the animal number. The animal number was put in the order of put into a cage after the grouping.\nPreparation of the drug was carried out immediately before the induction operation, and administration was carried out by using the prepared liquid for administration. Japanese Pharmacopoeia 5% glucose was injected to a formulated product containing 100 mg of the compound 1 to completely dissolve the compound 1, and a liquid for administration at the maximum dose was prepared by diluting with Japanese Pharmacopoeia 5% glucose, and a liquid for administration at a medium dose and a liquid for administration at a low dose were prepared by stepwise dilution of the liquid for administration at the maximum dose with Japanese Pharmacopoeia 5% glucose. For the non-treated group, Japanese Pharmacopoeia 5% glucose as a medium alone was prepared. Immediately after the induction, 4 hours later, 8 hours later and 12 hours later, the liquid was repeatedly administered subcutaneously to the dorsal neck to maintain the blood concentration. The liquid was administered in a volume of 10 ml/kg for each group.\nMice were anesthetized with gas-oxygen-fluothane, and the corpus 8 mm from the cecal apex was ligated through an abdominal incision, one spot in the apex was punctured and transfixed with a 22 G needle, and after leakage of cecal contents was confirmed, the cecum was completely replaced in the abdomen and the abdomen was closed.\nViability test was carried out for 3 days from immediately after the induction, and the results were summarized every 24 hours.\nEmploying the non-treated group as a control, comparison among groups of a group given with 0.1 mg/kg of the compound 1, a group given with 1 mg/kg of the compound 1 and a group given with 10 mg/kg of the compound 1 was carried out.\nViability test results: animals which died in 0 to 24 hours were scored 1, animals which died in 24 to 48 hours were scored 2, animals which died in 48 to 72 hours were scored 3, and animals which survived 72 hours or more were scored 4, and the obtained data were used.\nComparison among groups was carried out by Shirley-Williams' multiple comparison test.",
  "data": [
    {"smiles": "CCS(=O)(=O)Nc1ncc(C(F)(F)F)cc1NC(=O)C1CCCCC1.O.[Na]", "note": "[Compound 1, N-(2-ethylsulfonylamino-5-trifluoromethyl-3-pyridyl)cylohexanecarboxamide sodium salt monohydrate]", "values": [
      {"measurement": "surviving rate", "setting": "0.1 mg/kg x 4 times subcutaneous, 24 hr after induction of septic shock model", "result": 20, "unit": "%"},
      {"measurement": "surviving rate", "setting": "0.1 mg/kg x 4 times subcutaneous, 48 hr after induction of septic shock model", "result": 0, "unit": "%"},
      {"measurement": "surviving rate", "setting": "0.1 mg/kg x 4 times subcutaneous, 72 hr after induction of septic shock model", "result": 0, "unit": "%"},
      {"measurement": "surviving rate", "setting": "1 mg/kg x 4 times subcutaneous, 24 hr after induction of septic shock model", "result": 40, "unit": "%"},
      {"measurement": "surviving rate", "setting": "1 mg/kg x 4 times subcutaneous, 48 hr after induction of septic shock model", "result": 10, "unit": "%"},
      {"measurement": "surviving rate", "setting": "1 mg/kg x 4 times subcutaneous, 72 hr after induction of septic shock model", "result": 10, "unit": "%"},
      {"measurement": "surviving rate", "setting": "10 mg/kg x 4 times subcutaneous, 24 hr after induction of septic shock model", "result": 90, "unit": "%"},
      {"measurement": "surviving rate", "setting": "10 mg/kg x 4 times subcutaneous, 48 hr after induction of septic shock model", "result": 50, "unit": "%"},
      {"measurement": "surviving rate", "setting": "10 mg/kg x 4 times subcutaneous, 72 hr after induction of septic shock model", "result": 50, "unit": "%"},
      {"measurement": "improvement in the surviving rate versus non-treated group (Shirley-Williams' multiple comparison test)", "setting": "administration of 10 mg/kg, P<0.001", "result": "improvement in the surviving rate with statical significance"}
    ]}
  ]
}
